Assay results taken from PubChem BioAssay AID248 (DTP/NCI, 2004).
“And” between values parts separate entries of the source, which are not always exact repeats. Equal entries are not always repeated. Inconclusive results and toxic doses are left out. No stated cut-off is given here; in the data, active means T/C of 150% or more; inactive means T/C below 125%.

System: L1210 leukemia ip in BDF1 mice, survival T/C
Test: NCI In Vivo Anticancer Drug Screen. Data for tumor model L1210 Leukemia (intraperitoneal) in B6D2F1 (BDF1) mice
Conditions: endpoint: mean survival time, higher = longer survival
Procedure, shortened: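 Transplanted-tumor mice were given test agent; controls received vehicle only. Survival readings from the two groups were divided (treated over control).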

[1] = dose: 100.0 mg/kg/injection, schedule: Q01DX009 (ip), vehicle: Klucel (hydroxypropylcellulose) (HPC)
[2] = dose: 100.0 mg/kg/injection, schedule: Q04DX003 (ip), vehicle: Klucel (hydroxypropylcellulose) (HPC)
[3] = dose: 200.0 mg/kg/injection, schedule: Q01DX009 (ip), vehicle: Klucel (hydroxypropylcellulose) (HPC)
[4] = dose: 200.0 mg/kg/injection, schedule: Q04DX003 (ip), vehicle: Klucel (hydroxypropylcellulose) (HPC)
[5] = dose: 400.0 mg/kg/injection, schedule: Q01DX009 (ip), vehicle: Klucel (hydroxypropylcellulose) (HPC)
[6] = dose: 400.0 mg/kg/injection, schedule: Q04DX003 (ip), vehicle: Klucel (hydroxypropylcellulose) (HPC)
[7] = dose: 100.0 mg/kg/injection, schedule: Q01DX009 (ip), vehicle: saline
[8] = dose: 200.0 mg/kg/injection, schedule: Q01DX009 (ip), vehicle: saline
[9] = dose: 100.0 mg/kg/injection, schedule: Q01DX009 (ip), vehicle: saline with Tween-80
[10] = dose: 200.0 mg/kg/injection, schedule: Q01DX009 (ip), vehicle: saline with Tween-80
[11] = dose: 100.0 mg/kg/injection, schedule: Q01DX001 (ip), vehicle: saline
[12] = dose: 200.0 mg/kg/injection, schedule: Q01DX001 (ip), vehicle: saline
[13] = dose: 400.0 mg/kg/injection, schedule: Q01DX001 (ip), vehicle: saline
[14] = dose: 100.0 mg/kg/injection, schedule: Q01DX001 (ip), vehicle: other

Measured: T/C

COc1ncnc2nc[nH]c12
inactive: dose: 50.0 mg/kg/injection, schedule: Q01DX001 (ip), vehicle: Klucel (hydroxypropylcellulose) (HPC) 97 % of control | dose: 100.0 mg/kg/injection, schedule: Q01DX001 (ip), vehicle: Klucel (hydroxypropylcellulose) (HPC) 103 % of control | [1] 101 % of control | [2] 97 % of control | dose: 200.0 mg/kg/injection, schedule: Q01DX001 (ip), vehicle: Klucel (hydroxypropylcellulose) (HPC) 98 % of control | [3] 102 % of control | [4] 105 % of control | dose: 400.0 mg/kg/injection, schedule: Q01DX001 (ip), vehicle: Klucel (hydroxypropylcellulose) (HPC) 101 % of control | [5] 98 % of control | [6] 106 % of control

CC(C)(C)CC(C)(C)c1ccc(Oc2ccc([N+](=O)[O-])cc2S(=O)(=O)O)cc1
inactive: dose: 100.0 mg/kg/injection, schedule: Q04DX003 (ip), vehicle: saline with Tween-80 97 % of control

OCC1OC(n2cnc3c2nnn2ccnc32)C(O)C1O (centres undefined)
inactive: dose: 12.5 mg/kg/injection, schedule: Q01DX009 (ip), vehicle: saline 98 % of control | dose: 12.5 mg/kg/injection, schedule: Q04DX002 (ip), vehicle: saline 108 % of control | dose: 25.0 mg/kg/injection, schedule: Q01DX009 (ip), vehicle: saline 101 % of control | dose: 25.0 mg/kg/injection, schedule: Q04DX002 (ip), vehicle: saline 108 % of control | dose: 50.0 mg/kg/injection, schedule: Q01DX009 (ip), vehicle: saline 98 % of control and 107 % of control and 123 % of control | dose: 50.0 mg/kg/injection, schedule: Q04DX002 (ip), vehicle: saline 104 % of control | dose: 75.0 mg/kg/injection, schedule: Q01DX009 (ip), vehicle: saline 100 % of control | dose: 100.0 mg/kg/injection, schedule: Q01DX005 (ip), vehicle: saline 114 % of control | [7] 115 % of control | dose: 115.0 mg/kg/injection, schedule: Q01DX009 (ip), vehicle: saline 104 % of control | dose: 170.0 mg/kg/injection, schedule: Q01DX009 (ip), vehicle: saline 112 % of control | dose: 200.0 mg/kg/injection, schedule: Q01DX005 (ip), vehicle: saline 107 % of control | [8] 120 % of control

CCOCC(=O)Cc1ccccc1
inactive: dose: 50.0 mg/kg/injection, schedule: Q01DX009 (ip), vehicle: saline with Tween-80 95 % of control | [9] 100 % of control | [10] 92 % of control

CCC(=O)c1ccc(N=Nc2c(N)nc(N)nc2N)cc1
inactive: [11] 110 % of control | [12] 94 % of control

C=CCS(=O)(=O)CC=C
inactive: [9] 92 % of control | [10] 92 % of control | dose: 400.0 mg/kg/injection, schedule: Q01DX009 (ip), vehicle: saline with Tween-80 93 % of control

CCC(CC)c1cccc2ccccc12
inactive: [11] 98 % of control | [12] 96 % of control | [13] 108 % of control

CC1CC[N-]CC1.CC1CC[N-]CC1.CC1CC[N-]CC1.[Cl][Cr]([Cl])[Cl]
inactive: dose: 100.0 mg/kg/injection, schedule: Q04DX003 (ip), vehicle: other 98 % of control | dose: 200.0 mg/kg/injection, schedule: Q04DX003 (ip), vehicle: other 95 % of control | dose: 400.0 mg/kg/injection, schedule: Q04DX003 (ip), vehicle: other 97 % of control

Cc1ccc(OCCO)cc1C
inactive: dose: 100.0 mg/kg/injection, schedule: Q04DX002 (ip), vehicle: Klucel (hydroxypropylcellulose) (HPC) 120 % of control | dose: 200.0 mg/kg/injection, schedule: Q04DX002 (ip), vehicle: Klucel (hydroxypropylcellulose) (HPC) 92 % of control | dose: 400.0 mg/kg/injection, schedule: Q04DX002 (ip), vehicle: Klucel (hydroxypropylcellulose) (HPC) 92 % of control

CCOC(=O)C12CCC(CC1)C(C(=O)O)C2C(=O)O (centres undefined)
inactive: dose: 75.0 mg/kg/injection, schedule: Q04DX002 (ip), vehicle: saline with Tween-80 99 % of control | dose: 150.0 mg/kg/injection, schedule: Q04DX002 (ip), vehicle: saline with Tween-80 89 % of control | dose: 300.0 mg/kg/injection, schedule: Q04DX002 (ip), vehicle: saline with Tween-80 92 % of control

OC1CCC2=C(C1)C1CCC2C1 (centres undefined)
inactive: dose: 12.5 mg/kg/injection, schedule: Q04DX003 (ip), vehicle: saline with Tween-80 96 % of control | dose: 25.0 mg/kg/injection, schedule: Q04DX003 (ip), vehicle: saline with Tween-80 89 % of control | dose: 50.0 mg/kg/injection, schedule: Q04DX003 (ip), vehicle: saline with Tween-80 98 % of control

CC(C)O/N=C(/N)N=C(N)N
inactive: [14] 98 % of control | dose: 200.0 mg/kg/injection, schedule: Q01DX001 (ip), vehicle: other 106 % of control

CC(=O)CO
inactive: dose: 50.0 mg/kg/injection, schedule: Q01DX001 (ip), vehicle: carboxymethylcellulose (CMC) 98 % of control | dose: 100.0 mg/kg/injection, schedule: Q01DX001 (ip), vehicle: carboxymethylcellulose (CMC) 101 % of control | [7] 90 % of control | dose: 100.0 mg/kg/injection, schedule: Q04DX003 (ip), vehicle: saline 93 % of control | dose: 200.0 mg/kg/injection, schedule: Q01DX001 (ip), vehicle: carboxymethylcellulose (CMC) 101 % of control | [8] 97 % of control | dose: 200.0 mg/kg/injection, schedule: Q04DX003 (ip), vehicle: saline 96 % of control | dose: 400.0 mg/kg/injection, schedule: Q01DX001 (ip), vehicle: carboxymethylcellulose (CMC) 98 % of control | dose: 400.0 mg/kg/injection, schedule: Q01DX009 (ip), vehicle: saline 100 % of control | dose: 400.0 mg/kg/injection, schedule: Q04DX003 (ip), vehicle: saline 101 % of control

O=[N+]([O-])c1ccc(OCCN2CCCC2)cc1
inactive: dose: 75.0 mg/kg/injection, schedule: Q01DX001 (ip), vehicle: saline 93 % of control | dose: 150.0 mg/kg/injection, schedule: Q01DX001 (ip), vehicle: saline 98 % of control

O=C(CN1CCCCC1)Nc1cccc(C(F)(F)F)c1
inactive: [1] 99 % of control | [2] 97 % of control | [3] 100 % of control | [4] 98 % of control | [5] 100 % of control | [6] 93 % of control

COC(=O)NS(=O)(=O)c1cccs1
inactive: dose: 100.0 mg/kg/injection, schedule: Q04DX002 (ip), vehicle: other 98 % of control | dose: 200.0 mg/kg/injection, schedule: Q04DX002 (ip), vehicle: other 94 % of control | dose: 400.0 mg/kg/injection, schedule: Q04DX002 (ip), vehicle: other 102 % of control

COC(=O)c1nc[nH]c1N=[N+]=[N-]
inactive: [14] 97 % of control

CCOC(=O)CNN
inactive: dose: 4.0 mg/kg/injection, schedule: Q01DX009 (ip), vehicle: saline 93 % of control | dose: 8.0 mg/kg/injection, schedule: Q01DX009 (ip), vehicle: saline 108 % of control | dose: 16.0 mg/kg/injection, schedule: Q01DX009 (ip), vehicle: saline 103 % of control | dose: 28.0 mg/kg/injection, schedule: Q01DX001 (ip), vehicle: saline 101 % of control | dose: 56.0 mg/kg/injection, schedule: Q01DX001 (ip), vehicle: saline 108 % of control | dose: 112.0 mg/kg/injection, schedule: Q01DX001 (ip), vehicle: saline 114 % of control

CCN(CC(=O)O)CC(=O)O
inactive: [11] 93 % of control | [12] 112 % of control | [13] 96 % of control

c1ccc(Cn2ccc3ccncc32)cc1
inactive: dose: 75.0 mg/kg/injection, schedule: Q01DX001 (ip), vehicle: other 96 % of control

CCOC(=O)c1[nH]c(C)c(C(=O)OCC)c1-c1ccccc1
inactive: dose: 100.0 mg/kg/injection, schedule: Q01DX001 (ip), vehicle: saline with Tween-80 98 % of control | dose: 200.0 mg/kg/injection, schedule: Q01DX001 (ip), vehicle: saline with Tween-80 106 % of control | dose: 400.0 mg/kg/injection, schedule: Q01DX001 (ip), vehicle: saline with Tween-80 100 % of control
